Measured values taken from DBAASP.
Values after ≈ are worked out from the molar mass of the structure shown.

How the values were obtained:
Experiment in all cases: ≥ marks a high value that may be exact or a test limit, other limits are often not marked, values filed in µg/mL are converted to µM
Escherichia coli JW0013 = test system: Escherichia coli JW0013
[1] = test system: Escherichia coli DH5alpha
[2] = test system: Klebsiella pneumoniae ATCC 10031
[3] = test system: Salmonella enterica subsp. enterica serovar Typhimurium ATCC 14028
[4] = test system: Pseudomonas aeruginosa Ps4
[5] = test system: Bacillus subtilis ATCC 6051

Compound | MIC (Escherichia coli JW0013) | MIC [4] | also measured
CC[C@H](C)[C@H](NC(=O)[C@H](CCCN=C(N)N)NC(=O)[C@H](CCCN=C(N)N)NC(=O)[C@@H]1CCCN1C(=O)[C@@H]1CCCN1C(=O)[C@H](CCCN=C(N)N)NC(=O)[C@@H]1CCCN1C(=O)[C@H](CCCN=C(N)N)NC(=O)[C@@H]1CCCN1C(=O)[C@H](CCCN=C(N)N)NC(=O)[C@H](CCCN=C(N)N)NC(=O)[C@@H]1CCCN1C(=O)[C@H](CCCN=C(N)N)NC(=O)[C@H](CCCCN)NC(=O)[C@H](CC(=O)O)NC(=O)[C@@H](N)C(C)C)C(=O)N[C@@H](Cc1ccc(O)cc1)C(=O)N[C@@H](CC(N)=O)C(=O)N[C@@H](CCCN=C(N)N)C(N)=O [VDKRPRRPRPRPPRRIYNR] | 0.965 µM (≈ 2.4 µg/mL) |  | 
CC[C@H](C)[C@H](NC(=O)[C@H](CCCN=C(N)N)NC(=O)[C@H](CCCN=C(N)N)NC(=O)[C@@H]1CCCN1C(=O)[C@@H]1CCCN1C(=O)[C@H](CCCN=C(N)N)NC(=O)[C@@H]1CCCN1C(=O)[C@H](CCCN=C(N)N)NC(=O)[C@@H]1CCCN1C(=O)[C@H](CC(C)C)NC(=O)[C@H](Cc1ccc(O)cc1)NC(=O)[C@H](CS)NC(=O)[C@@H]1CCCN1C(=O)[C@H](CCCCN)NC(=O)[C@H](CC(=O)O)NC(=O)[C@@H](N)C(C)C)C(=O)N[C@@H](Cc1ccc(O)cc1)C(=O)N[C@@H](CC(N)=O)C(=O)N[C@@H](CCCN=C(N)N)C(N)=O [VDKPCYLPRPRPPRRIYNR] | 2 µM (≈ 4.8 µg/mL) |  | 
CC(C)C[C@H](NC(=O)[C@H](CCCN=C(N)N)NC(=O)[C@@H]1CCCN1C(=O)[C@@H]1CCCN1C(=O)[C@H](CCCN=C(N)N)NC(=O)[C@@H]1CCCN1C(=O)[C@H](CCCN=C(N)N)NC(=O)[C@H](CCCCN)NC(=O)[C@H](CCCN=C(N)N)NC(=O)[C@@H](N)CCCN=C(N)N)C(=O)N1CCC[C@H]1C(=O)N[C@@H](CCCN=C(N)N)C(=O)N1CCC[C@H]1C(=O)N[C@@H](CCCN=C(N)N)C(=O)N1CCC[C@H]1C(=O)N[C@@H](CCCN=C(N)N)C(=O)O [RRKRPRPPRLPRPRPR] | 0.3 µM (≈ 0.627 µg/mL) |  | 
CC(C)C[C@H](NC(=O)[C@H](CCCCN)NC(=O)[C@H](CCCCN)NC(=O)[C@H](CC(C)C)NC(=O)[C@H](CC(C)C)NC(=O)[C@H](CCCCN)NC(=O)[C@H](CC(C)C)NC(=O)[C@@H](N)Cc1ccccc1)C(=O)N[C@@H](C)C(=O)N[C@@H](C)C(=O)N[C@@H](CCCCN)C(=O)N[C@@H](CC(C)C)C(=O)N[C@@H](Cc1ccccc1)C(=O)O [FLKLLKKLAAKLF] |  |  | MIC [1]: 4.08 µM (≈ 6.25 µg/mL); MIC [2]: 16.3 µM (≈ 25 µg/mL); MIC [3]: 16.3 µM (≈ 25 µg/mL)
CC[C@H](C)[C@H](NC(=O)[C@H](CCCN=C(N)N)NC(=O)[C@H](Cc1c[nH]c2ccccc12)NC(=O)[C@@H](N)Cc1ccccc1)C(=O)N[C@@H](Cc1c[nH]c2ccccc12)C(=O)N[C@@H](CCCN=C(N)N)C(=O)N[C@@H](Cc1c[nH]c2ccccc12)C(=O)N[C@@H](CCCN=C(N)N)C(N)=O [FWRIWRWR] |  | 23.9 µM (≈ 31.2 µg/mL) | 
CC[C@H](C)[C@H](NC(=O)[C@H](CCCN=C(N)N)NC(=O)[C@@H](NC(=O)[C@H](CC(N)=O)NC(=O)[C@H](CCCN=C(N)N)NC(=O)[C@H](CCC(N)=O)NC(=O)[C@H](Cc1c[nH]c2ccccc12)NC(=O)[C@@H](N)CC(C)C)[C@@H](C)CC)C(=O)N[C@@H](CCCN=C(N)N)C(=O)N[C@@H](CCCN=C(N)N)C(N)=O [LWQRNIRIRR] |  | ≥ 177 µM | 
CC[C@H](C)[C@H](NC(=O)[C@H](CCCN=C(N)N)NC(=O)[C@H](CCCN=C(N)N)NC(=O)[C@@H]1CCCN1C(=O)[C@@H]1CCCN1C(=O)[C@H](CCCN=C(N)N)NC(=O)[C@@H]1CCCN1C(=O)[C@H](CCCN=C(N)N)NC(=O)[C@@H]1CCCN1C(=O)[C@H](CC(C)C)NC(=O)[C@H](Cc1ccc(O)cc1)NC(=O)[C@@H]1CCCN1C(=O)[C@H](CC(N)=O)NC(=O)[C@H](CCCCN)NC(=O)[C@H](CC(=O)O)NC(=O)[C@@H](N)C(C)C)C(=O)N[C@@H](Cc1ccc(O)cc1)C(=O)N[C@@H](CC(N)=O)C(=O)N[C@@H](CCCN=C(N)N)C(N)=O [VDKNPYLPRPRPPRRIYNR] | 1.99 µM (≈ 4.8 µg/mL) |  | 
CC[C@H](C)[C@H](NC(=O)[C@H](CC(N)=O)NC(=O)[C@H](CCCN=C(N)N)NC(=O)[C@H](CCC(N)=O)NC(=O)[C@H](Cc1c[nH]c2ccccc12)NC(=O)[C@@H](N)CS)C(=O)N[C@@H](CCCN=C(N)N)C(=O)N[C@@H](CCCCN)C(=O)N[C@@H](CS)C(=O)N[C@@H](CCCN=C(N)N)C(N)=O [CWQRNIRKCR] |  | ≥ 183 µM | 
CC[C@H](C)[C@H](NC(=O)[C@H](CCCN=C(N)N)NC(=O)[C@@H](N)CCCN=C(N)N)C(=O)N[C@@H](CCCN=C(N)N)C(=O)N1CCC[C@H]1C(=O)N[C@@H](CCCN=C(N)N)C(=O)N1CCC[C@H]1C(=O)N1CCC[C@H]1C(=O)N[C@@H](CCCN=C(N)N)C(=O)N[C@@H](CC(C)C)C(=O)N1CCC[C@H]1C(=O)N[C@@H](CCCN=C(N)N)C(=O)N1CCC[C@H]1C(=O)N[C@@H](CCCN=C(N)N)C(=O)N1CCC[C@H]1C(=O)N[C@@H](CCCCN)C(=O)O [RRIRPRPPRLPRPRPK] | 0.24 µM (≈ 0.492 µg/mL) |  | 
CC[C@H](C)[C@H](NC(=O)[C@@H](N)Cc1cnc[nH]1)C(=O)N[C@@H](CCC(N)=O)C(=O)N[C@@H](CCCCN)C(=O)N[C@@H](CCC(=O)O)C(=O)N[C@@H](CC(=O)O)C(=O)N[C@H](C(=O)N1CCC[C@H]1C(=O)N[C@@H](CO)C(=O)N[C@@H](CCC(=O)O)C(=O)N[C@@H](CCCN=C(N)N)C(=O)N[C@@H](Cc1ccc(O)cc1)C(=O)N[C@@H](CC(C)C)C(=O)NCC(=O)N[C@@H](Cc1ccc(O)cc1)C(=O)N[C@@H](CC(C)C)C(=O)N[C@@H](CCC(=O)O)C(=O)N[C@@H](CCC(N)=O)C(=O)N[C@@H](CC(C)C)C(=O)N[C@@H](CC(C)C)C(=O)N[C@@H](CCCN=C(N)N)C(=O)N[C@@H](CC(C)C)C(=O)N[C@@H](CCCCN)C(=O)N[C@@H](CCCCN)C(=O)O)C(C)C [HIQKEDVPSERYLGYLEQLLRLKK] |  |  | MIC [5]: ≥ 186 µM
CC[C@H](C)[C@H](NC(=O)[C@H](CCCCN)NC(=O)[C@H](CCCCN)NC(=O)[C@H](CCCCN)NC(=O)[C@@H](NC(=O)[C@H](CCCCN)NC(=O)[C@H](CCCN=C(N)N)NC(=O)[C@@H](NC(=O)[C@H](CC(N)=O)NC(=O)[C@H](CCCN=C(N)N)NC(=O)[C@H](CCC(N)=O)NC(=O)[C@H](Cc1c[nH]c2ccccc12)NC(=O)[C@@H](N)Cc1ccccc1)[C@@H](C)CC)C(C)C)C(N)=O [FWQRNIRKVKKKI] |  | ≥ 143 µM | 
CC[C@H](C)[C@H](NC(=O)[C@H](CCCN=C(N)N)NC(=O)[C@H](Cc1c[nH]c2ccccc12)NC(=O)[C@@H](N)Cc1ccccc1)C(=O)N[C@@H](CCCN=C(N)N)C(=O)N[C@@H](CCCCN)C(=O)N[C@H](C(=O)N[C@@H](CCCN=C(N)N)C(N)=O)C(C)C [FWRIRKVR] |  | ≥ 215 µM | 
CC(C)[C@H](NC(=O)[C@H](CCCCN)NC(=O)[C@H](CCCN=C(N)N)NC(=O)[C@H](Cc1ccc(O)cc1)NC(=O)[C@H](CC(N)=O)NC(=O)[C@H](CCCN=C(N)N)NC(=O)[C@H](CCC(N)=O)NC(=O)[C@H](Cc1c[nH]c2ccccc12)NC(=O)[C@@H](N)Cc1ccccc1)C(=O)N[C@@H](CCCN=C(N)N)C(N)=O [FWQRNYRKVR] |  | ≥ 172 µM | 
